The record followed here is patent publication US20220118036A1, “USE OF MORCHELLA ACTIVE SUBSTANCE” (GRAPE KING BIO LTD., priority 2020, published 2022).

The structures appear in SMILES notation. Several values for one entry are separate records, joined by “and”; a condition that tells them apart may be missing. Equal values may be shown once.

The assay deals with mouse skeletal muscle cells C2C12. Put plainly: Dexamethasone-induced muscle atrophy of differentiated C2C12 myotubes (myotube width, H&E staining). Conditions: 1 μM Dexamethasone alone, 24 hours, mean±SD, n = 60, control 30.39 ± 4.52. Format: cell-based. The procedure: Currently, there have been experiments using Dexamethasone to induce muscle atrophy in mouse skeletal muscle cell C2C12. […] This paper uses a synthetic glucocorticoid-Dexamethasone to induce differentiated C2C12 atrophy as a model of muscle atrophy for sarcopenia study, in which the severity of muscle atrophy is measured according to the observation of morphology and diameter of the myotubes. According to such a method, in this experiment, the differentiated mouse skeletal muscle cell C2C12 is stained with H&E (hematoxylin and eosin) to assess the effect of the Morchella mycelium active substance in muscle atrophy. The experimental method is as follows:
(1) After the mouse skeletal muscle cells C2C12 was collected and the cell suspension concentration was adjusted, the cells were plated in a 6-well plate at a cell density of 1×10^5-2×10^5 with the cell growth medium (DMEM, 10% Fetal Bovine Serum).
(2) The 6-well plate of (1) was placed in a 5% CO2 incubator at 37° C. for two days and then observed under a microscope. […]
(5) Each test was repeated 3 times, and the numerical value was expressed as mean±SD (standard deviation). The statistical method used paired t-test to analyze the percentages of each item, and the significant difference was determined when the p-value was less than 0.05.

Take `C[C@@H]1C[C@H]2[C@@H]3CCC4=CC(=O)C=C[C@]4(C)[C@@]3(F)[C@@H](O)C[C@]2(C)[C@@]1(O)C(=O)CO` [Dexamethasone]: the myotube diameter was 19.98 μm and 19.98 ± 6.42 μm.
